In general, IC50 refers to the concentration that gives 50% inhibition. Read a low IC50 as higher potency.

Chain of human, KCNT1 (Q5JUK3 whole entry): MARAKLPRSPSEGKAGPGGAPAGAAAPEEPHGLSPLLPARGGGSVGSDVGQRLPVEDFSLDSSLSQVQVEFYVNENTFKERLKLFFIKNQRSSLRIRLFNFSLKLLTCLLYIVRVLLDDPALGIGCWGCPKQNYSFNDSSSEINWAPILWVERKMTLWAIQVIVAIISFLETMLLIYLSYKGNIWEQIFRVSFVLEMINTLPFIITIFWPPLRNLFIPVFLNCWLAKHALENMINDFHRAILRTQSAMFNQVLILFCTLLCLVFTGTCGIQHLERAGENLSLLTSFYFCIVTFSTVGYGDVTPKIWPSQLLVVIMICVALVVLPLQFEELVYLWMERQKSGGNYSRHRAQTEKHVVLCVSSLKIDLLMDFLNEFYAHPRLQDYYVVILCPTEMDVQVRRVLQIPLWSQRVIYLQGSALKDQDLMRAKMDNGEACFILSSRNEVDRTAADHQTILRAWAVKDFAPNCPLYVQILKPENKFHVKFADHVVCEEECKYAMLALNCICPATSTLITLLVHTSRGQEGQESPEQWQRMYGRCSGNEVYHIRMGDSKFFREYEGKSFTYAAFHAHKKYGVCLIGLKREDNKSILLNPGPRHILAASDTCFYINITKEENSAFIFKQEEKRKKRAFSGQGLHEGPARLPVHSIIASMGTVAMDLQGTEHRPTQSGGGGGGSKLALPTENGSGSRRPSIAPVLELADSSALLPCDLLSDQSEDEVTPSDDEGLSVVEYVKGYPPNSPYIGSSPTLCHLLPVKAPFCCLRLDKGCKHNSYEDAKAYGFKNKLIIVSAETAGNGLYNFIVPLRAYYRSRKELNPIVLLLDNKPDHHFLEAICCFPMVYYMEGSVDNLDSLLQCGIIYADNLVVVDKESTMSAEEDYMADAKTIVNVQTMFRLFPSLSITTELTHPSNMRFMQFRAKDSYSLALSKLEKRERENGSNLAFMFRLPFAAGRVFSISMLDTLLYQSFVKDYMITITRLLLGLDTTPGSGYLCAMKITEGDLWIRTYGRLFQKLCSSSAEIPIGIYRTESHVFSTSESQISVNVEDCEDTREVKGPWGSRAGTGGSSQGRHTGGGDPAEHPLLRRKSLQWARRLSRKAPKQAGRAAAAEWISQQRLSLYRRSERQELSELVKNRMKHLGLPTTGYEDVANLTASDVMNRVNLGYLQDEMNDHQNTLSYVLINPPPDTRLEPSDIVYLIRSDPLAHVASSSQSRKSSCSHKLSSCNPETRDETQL

The assay addresses human, KCNT1 (Homo sapiens (Human), UniProt Q5JUK3). The assay is described as follows: FLIPR Tl/K Flux Assay. The format is cell-based. To be noted: HEK293 cells stably expressing human KCNT1; Tl+ flux stimulated with EC80 of agonist Loxapine. The method in brief:
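HEK293 cells stably expressing human KCNT1 were loaded with FLIPR potassium dye in HEPES/HBSS pH 7.4 with 5 mM probenecid, 1 h at 25 °C, then given test compound for 30 min at 25 °C. Tl+ flux was triggered with chloride-free buffer containing Tl+ and EC80 loxapine and read 160 s. IC50 came from Hill fits of % inhibition.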
Consider `Cn1nc(C(F)(F)F)cc1C(=O)N[C@@H]1CCCCn2nc(-c3ccnc(C(F)(F)F)c3)cc21` [Compound I-385b], for which the IC50 was in the range of 250 to 500 nM.

The molecule `Cc1c(C(F)(F)F)nn(C)c1C(=O)N[C@H]1CCc2nn(-c3ccnc(C(F)(F)F)c3)cc21` [Compound I-386a] came in with an IC50 above 1000 nM. For `O=C(N[C@H]1CCCCn2nc(-c3ccnc(C(F)(F)F)c3)cc21)c1cc(Cl)cc(C(F)(F)F)c1` [Compound I-387a] the value was below 250 nM; for `Cn1nc(C2CC2)cc1C(=O)N[C@H]1CCCCn2nc(-c3ccnc(C(F)(F)F)c3)cc21` [Compound I-388a], below 250 nM; for `Cn1nc(CC(F)(F)F)cc1C(=O)N[C@H]1CCCn2nc(-c3ccnc(C(F)(F)F)c3)cc21` [Compound I-389a], below 250 nM. For `CCc1cc(-c2cc3n(n2)CCC[C@@H]3NC(=O)c2cc(C(F)(F)F)nn2C)ccn1` [Compound I-390a] the value was below 250 nM. For `Cn1nc(C(F)(F)F)cc1C(=O)N[C@H]1CCCn2nc(-c3ccnc(OC(F)(F)F)c3)cc21` [Compound I-391a] the value was below 250 nM. With `O=C(N[C@H]1CCCc2cnc(-c3ccnc(C(F)(F)F)c3)cc21)c1cccc(C(F)(F)F)c1` [Compound I-392a], the IC50 is below 250 nM. Consider `COc1cc(-c2cc3c(cn2)CCCC3NC(=O)c2cc(C(F)(F)F)nn2C)ccn1` (stereo not shown) [Compound I-393], for which the IC50 was above 1000 nM. The figure for `Cc1cccc(C(=O)N[C@H]2CCCc3cnc(-c4ccnc(C(F)(F)F)c4)cc32)c1` [Compound I-394a] is 250 to 500 nM; for `CS(=O)(=O)c1cccc(C(=O)N[C@H]2CCc3nn(-c4ccnc(C(F)(F)F)c4)cc32)c1` [Compound I-395a] it is above 1000 nM; for `O=C(N[C@H]1CCc2nn(-c3ccnc(C(F)(F)F)c3)cc21)c1cc(F)cc(Cl)c1` [Compound I-396a] it is below 250 nM. The figure for `Cc1cc(C(=O)N[C@H]2CCCn3nc(-c4ccnc(C(F)(F)F)c4)cc32)cn(C)c1=O` [Compound I-397a] is above 1000 nM; for `O=C(N[C@H]1CCCn2nc(-c3ccnc(C(F)(F)F)c3)cc21)c1cn(C2CC2)nc1C(F)(F)F` [Compound I-398a] it is below 250 nM; for `O=C(N[C@H]1CCCn2nc(-c3ccnc(C(F)(F)F)c3)cc21)c1cnn(C(F)(F)F)c1` [Compound I-399a] it is below 250 nM. The figure for `O=C(N[C@H]1CCCn2nc(-c3ccnc(C(F)(F)F)c3)cc21)c1ccc2ccnn2c1` [Compound I-400a] is below 250 nM; for `O=C(N[C@H]1CCCn2nc(-c3ccnc(C(F)(F)F)c3)cc21)c1cn(C2CC2)nn1` [Compound I-401a] it is above 1000 nM.

With `Cc1cc(C(=O)N[C@H]2CCCn3nc(-c4ccnc(C(F)(F)F)c4)cc32)nc(C2CC2)n1` [Compound I-402a], the IC50 is below 250 nM. For `O=C(N[C@H]1CCCn2nc(-c3ccnc(C(F)(F)F)c3)cc21)c1ccnn1CC(F)F` [Compound I-403a] the value was below 250 nM; for `N#Cc1cc(OC(F)(F)F)cc(C(=O)N[C@H]2CCCn3nc(-c4ccnc(C(F)(F)F)c4)cc32)c1` [Compound I-404a], below 250 nM. For `O=C(N[C@H]1CCCn2nc(-c3ccnc(C(F)(F)F)c3)cc21)c1cccc(F)c1F` [Compound I-405a] the value was below 250 nM; for `Cc1nc(C(F)(F)F)c(C(=O)N[C@H]2CCCn3nc(-c4ccnc(C(F)(F)F)c4)cc32)s1` [Compound I-406a], 250 to 500 nM; for `Cn1ncc(C(=O)N[C@H]2CCCn3nc(-c4ccnc(C(F)(F)F)c4)cc32)c1Cl` [Compound I-407a], 250 to 500 nM.

For `O=C(N[C@H]1CCCn2nc(-c3ccnc(C(F)(F)F)c3)cc21)c1cnn2cc(F)ccc12` [Compound I-408a], the IC50 is below 250 nM. The figure for `O=C(N[C@H]1CCCn2nc(-c3ccnc(C(F)(F)F)c3)cc21)c1ccc(F)c(C(F)(F)F)c1` [Compound I-410a] is below 250 nM. The figure for `O=C(N[C@H]1CCCn2nc(-c3ccnc(C(F)(F)F)c3)cc21)c1ccc(F)c(OC(F)(F)F)c1` [Compound I-411a] is below 250 nM. The figure for `CC(C)n1cnc(C(=O)N[C@H]2CCCn3nc(-c4ccnc(C(F)(F)F)c4)cc32)n1` [Compound I-412a] is above 1000 nM. `O=C(N[C@H]1CCCn2nc(-c3ccnc(C(F)(F)F)c3)cc21)c1cc2n(n1)CCCO2` [Compound I-413a] registered a 50% inhibitory concentration (IC50) above 1000 nM. For `Cc1cc(C(=O)N[C@H]2CCCn3nc(-c4ccnc(C(F)(F)F)c4)cc32)cc(C)n1` [Compound I-414a] the value was below 250 nM; for `Cn1cc(C(=O)N[C@H]2CCCn3nc(-c4ccnc(C(F)(F)F)c4)cc32)c(C(F)F)n1` [Compound I-415a], below 250 nM; for `Cc1cn(C)nc1C(=O)N[C@H]1CCCn2nc(-c3ccnc(C(F)(F)F)c3)cc21` [Compound I-416a], 250 to 500 nM.

Regarding `Cc1nn(C)c(C(=O)N[C@H]2CCCn3nc(-c4ccnc(C(F)(F)F)c4)cc32)c1F` [Compound I-417a], the IC50 is below 250 nM. The figure for `Cc1cc(C#N)cc(C(=O)N[C@H]2CCCn3nc(-c4ccnc(C(F)(F)F)c4)cc32)c1` [Compound I-418a] is below 250 nM; for `O=C(N[C@H]1CCCn2nc(-c3ccnc(C(F)(F)F)c3)cc21)c1cccc(C(F)(F)F)c1F` [Compound I-419a] it is below 250 nM. The figure for `COc1cc(C(=O)N[C@H]2CCCn3nc(-c4ccnc(C(F)(F)F)c4)cc32)c(F)cn1` [Compound I-420a] is below 250 nM.

Molecule `Cn1ncc(C(=O)N[C@H]2CCCn3nc(-c4ccnc(C(F)(F)F)c4)cc32)c1C(F)F` [Compound I-421a] gave an IC50 below 250 nM. Consider `O=C(N[C@H]1CCCn2nc(-c3ccnc(C(F)(F)F)c3)cc21)c1nc2ccccn2n1` [Compound I-422a], for which the IC50 was above 1000 nM. For `Cc1ccn(CC(=O)N[C@H]2CCCn3nc(-c4ccnc(C(F)(F)F)c4)cc32)n1` [Compound I-423a] the value was above 1000 nM. For `COc1cc(C(=O)N[C@H]2CCCn3nc(-c4ccnc(C(F)(F)F)c4)cc32)nc(C(F)(F)F)n1` [Compound I-424a] the value was below 250 nM.

In turn, `N#Cc1c(C(=O)N[C@H]2CCCn3nc(-c4ccnc(C(F)(F)F)c4)cc32)ncn1CC(F)(F)F` [Compound I-425a] showed a 50% inhibitory concentration (IC50) above 1000 nM. The figure for `Cc1cc(C(=O)N[C@H]2CCCn3nc(-c4ccnc(C(F)(F)F)c4)cc32)n(C(F)F)n1` [Compound I-426a] is below 250 nM; for `COc1cc(-c2cc3n(n2)CC[C@@H]3NC(=O)c2cc(C(F)(F)F)nn2C)ccn1` [Compound I-427a] it is below 250 nM; for `COc1cc(-c2cc3n(n2)CC[C@H]3NC(=O)c2cc(C(F)(F)F)nn2C)ccn1` [Compound I-427b] it is above 1000 nM. Molecule `COc1cc(-c2nc3c(o2)CCC[C@@H]3NC(=O)c2cc(C(F)(F)F)nn2C)ccn1` [Compound I-428a] had an IC50 below 250 nM.

Molecule `CC(C)c1cc(-c2cc3n(n2)CCC[C@@H]3NC(=O)c2cc(C(F)(F)F)nn2C)ccn1` [Compound I-429a] yielded an IC50 below 250 nM. The figure for `COc1cc(-c2cc3n(n2)CCC[C@@H]3NC(=O)c2cc(C(F)(F)F)nn2C)cc(C)n1` [Compound I-431a] is below 250 nM; for `Cc1cc(-c2cc3n(n2)CCC[C@@H]3NC(=O)c2cc(C(F)(F)F)nn2C)cc(C(F)(F)F)n1` [Compound I-432a] it is below 250 nM; for `Cc1cc(-c2cc3n(n2)CCC[C@@H]3NC(=O)c2cc(C(F)(F)F)nn2C)cc(C)n1` [Compound I-433a] it is above 1000 nM. For `Cc1nn2ccccc2c1C(=O)N[C@H]1CCCn2nc(-c3ccnc(C(F)(F)F)c3)cc21` [Compound I-434a] the value was below 250 nM. For `O=C(N[C@H]1CCCn2nc(-c3ccnc(C(F)(F)F)c3)cc21)c1cnn(CC(F)(F)F)c1` [Compound I-435a] the value was above 1000 nM; for `O=C(N[C@H]1CCCn2nc(-c3ccnc(C(F)(F)F)c3)cc21)c1cc2n(n1)CCO2` [Compound I-436a], above 1000 nM.

In the case of `O=C(N[C@H]1CCCn2nc(-c3ccnc(C(F)(F)F)c3)cc21)c1cncc(C(F)(F)F)n1` [Compound I-437a], the IC50 is below 250 nM.

With `O=C(N[C@H]1CCCn2nc(-c3ccnc(C(F)(F)F)c3)cc21)c1nccc(C(F)(F)F)n1` [Compound I-438a], the half-inhibitory concentration (IC50) is above 1000 nM. For `CCc1[nH]nc(C(=O)N[C@H]2CCCn3nc(-c4ccnc(C(F)(F)F)c4)cc32)c1F` [Compound I-439a] the value was below 250 nM; for `Cc1ccn2ncc(C(=O)N[C@H]3CCCn4nc(-c5ccnc(C(F)(F)F)c5)cc43)c2n1` [Compound I-440a], 500 to 1000 nM.

`CC(C)c1nc(C(=O)N[C@H]2CCCn3nc(-c4ccnc(C(F)(F)F)c4)cc32)co1` [Compound I-441a]: the IC50 is below 250 nM. Regarding `O=C(N[C@H]1CCCn2nc(-c3ccnc(C(F)(F)F)c3)cc21)c1cc2cccnn2c1` [Compound I-442a], the IC50 is below 250 nM.

For `N#Cc1cccc(C(=O)N[C@H]2CCCCn3nc(-c4ccnc(C(F)(F)F)c4)cc32)c1` [Compound I-443a], the half-inhibitory concentration (IC50) is below 250 nM.

As to `Cn1nc(C(F)(F)F)cc1C(=O)N[C@H]1CCCn2nc(-c3ccnc(C(C)(C)O)c3)cc21` [Compound I-444a], the IC50 fell in the range of 500 to 1000 nM. With `Cc1cnc(C(F)(F)F)cc1-n1cc2c(n1)CCC[C@@H]2NC(=O)c1cc(C(F)(F)F)nn1C` [Compound I-445a], the IC50 is below 250 nM.

Consider `COc1cc(-n2cc3c(n2)CC[C@@H]3NC(=O)c2cc(F)cc(F)c2)ccn1` [Compound I-446a], for which the IC50 was below 250 nM.

As to `COc1cc(-c2cc3n(n2)CC[C@@H]3NC(=O)c2cc(F)cc(F)c2)ccn1` [Compound I-447a], the IC50 is below 250 nM. In turn, `COc1cc(-c2cc3n(n2)CC[C@H]3NC(=O)c2cc(F)cc(F)c2)ccn1` [Compound I-447b] yielded a half-inhibitory concentration (IC50) below 250 nM. On to `Cc1cc(C(=O)N[C@H]2CCCn3nc(-c4ccnc(C(F)(F)F)c4)cc32)n(-c2ccccc2)n1` [Compound I-448a], for which the IC50 was below 250 nM.

(Values after patent US20250313548A1 (Actio Biosciences, Inc., priority 2023, published 2025).)
